The target of assay [1] is E3 ubiquitin-protein ligase XIAP (Homo sapiens, UniProt P98170).
Description: Binding affinity to N-terminal 6xHis-tagged human cloned XIAP BIR3 domain expressed in Escherichia coli BL21 (DE3) by fluorescence polarization-based competitive binding assay
Another assay deals with SK-OV-3. Briefly: Growth inhibition of human SKOV3 cells after 4 days by WST8 assay. Type of assay: functional, cell-based. The settings on record: SK-OV-3, 96 h. Background: Formazan colour is commonly taken as a measure of viable cells.
In assay [2] the test system is MDA-MB-231. Briefly: cells. The settings on record: Homo sapiens, MDA-MB-231, 96 h.
Description: Growth inhibition of human MDA-MB-231 cells after 4 days by WST-8 assay
For assay [3], the system named is MDA-MB-231. Briefly: Induction of apoptosis in human MDA-MB-231 cells assessed as late apoptotic cells at 1 uM after 48 hrs using annexin V-propidium iodide staining by flow cytometry. Type of assay: functional. Background: In flow cytometry, cells or beads pass a laser one at a time.
In assay [4] the test system is MDA-MB-231. Briefly: Induction of apoptosis in human MDA-MB-231 cells assessed as early apoptotic cells at 30 nM after 48 hrs using annexin V-propidium iodide staining by flow cytometry. Type of assay: functional.
In assay [5] the test system is MDA-MB-231. Briefly: Induction of apoptosis in human MDA-MB-231 cells assessed as late apoptotic cells at 30 nM after 48 hrs using annexin V-propidium iodide staining by flow cytometry. The class given is functional.
Assay [6] has as its system MDA-MB-231. Briefly: Induction of apoptosis in human MDA-MB-231 cells assessed as early apoptotic cells at 100 nM after 48 hrs using annexin V-propidium iodide staining by flow cytometry. Type of assay: functional.
The test system of assay [7] is MDA-MB-231. Kind of assay: Induction of apoptosis in human MDA-MB-231 cells assessed as early apoptotic cells at 1 uM after 48 hrs using annexin V-propidium iodide staining by flow cytometry. The class given is functional.
Assay [8] relates to MDA-MB-231. Kind of assay: Induction of apoptosis in human MDA-MB-231 cells assessed as late apoptotic cells at 100 nM after 48 hrs using annexin V-propidium iodide staining by flow cytometry. Type of assay: functional.

Here are results for twelve compounds from ChEMBL document CHEMBL1152291, “Structure-based design, synthesis, evaluation, and crystallographic studies of conformationally constrained Smac mimetics as inhibitors of the X-linked inhibitor of apoptosis protein (XIAP)” (J Med Chem, 2008).

SMILES strings stand for the structures.

Chain of E3 ubiquitin-protein ligase XIAP (P98170 whole entry): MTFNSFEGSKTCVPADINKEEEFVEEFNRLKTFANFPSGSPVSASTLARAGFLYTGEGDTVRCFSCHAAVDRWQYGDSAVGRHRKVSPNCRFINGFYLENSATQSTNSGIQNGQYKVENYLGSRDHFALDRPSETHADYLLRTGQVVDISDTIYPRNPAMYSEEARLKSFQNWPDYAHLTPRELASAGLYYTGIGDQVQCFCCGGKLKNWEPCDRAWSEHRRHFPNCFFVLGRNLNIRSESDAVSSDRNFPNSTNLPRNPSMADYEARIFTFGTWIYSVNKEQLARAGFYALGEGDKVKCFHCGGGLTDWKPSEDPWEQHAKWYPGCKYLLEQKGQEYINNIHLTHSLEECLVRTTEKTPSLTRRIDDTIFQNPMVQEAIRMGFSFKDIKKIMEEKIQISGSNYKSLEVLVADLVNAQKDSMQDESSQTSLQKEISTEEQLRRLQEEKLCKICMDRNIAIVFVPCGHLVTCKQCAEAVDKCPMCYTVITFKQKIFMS

Take `CCC[C@H](N)C(=O)N[C@H]1CC[C@H]2CC[C@@H](C(=O)NCc3ccccc3)N2C1`: the Ki (usually the equilibrium dissociation constant of an inhibitor or competing ligand from its target) in assay [1] was above 100000 nM.

Regarding `C[C@H](O)C(=O)N[C@H]1CCCC[C@H]2CC[C@@H](C(=O)NC(c3ccccc3)c3ccccc3)N2C1=O`, the figures for the IC50 with SK-OV-3 and with MDA-MB-231 [2] were above 10000 nM and 7000 nM, respectively. The compound also registered an inhibition constant Ki in assay [1] of 13000 nM.

Compound `C[C@H](N)C(=O)N[C@H]1CCC[C@H]2CC[C@@H](C(=O)NC(c3ccccc3)c3ccccc3)N2C1=O` displayed a Ki in [1] of 60 nM. This counts as double-digit nanomolar.

`C[C@H](N)C(=O)N[C@H]1CCCC[C@H]2CC[C@@H](C(=O)NCc3ccccc3)N2C1=O`: in assay [1], affinity was put at a Ki of 100 nM.

With `CC[C@H](N)C(=O)N[C@H]1CCCC[C@H]2CC[C@@H](C(=O)N[C@H](c3ccccc3)c3ccc4ccccc4c3)N2C1=O`, in assay [1], the Ki was determined as 759 nM.

In assay [1], `CC[C@H](O)C(=O)N[C@H]1CCC[C@H]2CC[C@@H](C(=O)NC(c3ccccc3)c3ccccc3)N2C1=O` returned an inhibition constant (Ki) of 29000 nM.

For the compound `CC[C@H](N)C(=O)N[C@H]1CCCC[C@H]2CC[C@@H](C(=O)NC(c3ccccc3)c3ccccc3)N2C1=O`, the IC50 (as a rule, the point on the concentration scale where inhibition reaches its midpoint) in the assay with SK-OV-3 is above 10000 nM; in the assay on MDA-MB-231 [2], 8000 nM. The compound also displayed a Ki in assay [1] of 39 nM.

Turning to `CC[C@H](N)C(=O)N[C@H]1CCCC[C@H]2CC[C@@H](C(=O)N[C@@H](c3ccccc3)c3ccc4ccccc4c3)N2C1=O`, the affinity in assay [1] corresponds to a Ki of 47 nM.

For `CC[C@@H](C(=O)N[C@H]1CCCC[C@H]2CC[C@@H](C(=O)NC(c3ccccc3)c3ccccc3)N2C1=O)N1CCOCC1`, the affinity in [1], expressed as Ki, was 32900 nM. This Ki is about 700-fold higher than that of the compound before.

In turn, `CN[C@@H](C)C(=O)N[C@H]1CCCC[C@H]2CC[C@@H](C(=O)NC(c3ccccc3)c3ccccc3)N2C1=O` showed a 50% inhibitory concentration (IC50) in the assay on SK-OV-3 of 900 nM. The Activity in the assay with MDA-MB-231 [3] was 8%; with MDA-MB-231 [4], 13%; in the assay with MDA-MB-231 [5], 2%; in the assay with MDA-MB-231 [6] it was 29%; in the assay on MDA-MB-231 [7] it was 39%; in the assay on MDA-MB-231 [8], 10%.

Regarding `CC[C@H](NC)C(=O)N[C@H]1CCCC[C@H]2CC[C@@H](C(=O)NC(c3ccccc3)c3ccccc3)N2C1=O`, the concentration for half-maximal inhibition (IC50) with SK-OV-3 came to 1000 nM; in the assay with MDA-MB-231 [2], 410 nM. Besides, the Activity in the assay on MDA-MB-231 [3] came out at 8%; with MDA-MB-231 [4], 13%; in the assay on MDA-MB-231 [5], 3%; in the assay with MDA-MB-231 [6], 20%; in the assay with MDA-MB-231 [7], 29%; in the assay with MDA-MB-231 [8] it was 3%.

`C[C@H](N)C(=O)N[C@H]1CC[C@H]2CC[C@@H](C(=O)NCc3ccccc3)N2C1` had a Ki in assay [1] of […].
